Data taken from PubChem BioAssay AID330 (DTP/NCI, 2004).
“And” between values parts separate entries of the source, which are not always exact repeats. Identical values can stand only once. Toxic doses and inconclusive results are not listed.

Test system: P388 leukemia ip, CD2F1 mice, survival T/C
Assay: NCI In Vivo Anticancer Drug Screen. Data for tumor model P388 Leukemia (intraperitoneal) in CD2F1 (CDF1) mice
Conditions: endpoint: median survival time, higher = longer survival
Summary of the method: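 Mice carrying the transplanted tumor received test compound or vehicle. Survival was recorded in each group, and the value is the treated-group measurement divided by that of the vehicle-treated control group.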

[1] = dose: 50.0 mg/kg/injection, schedule: Q04DX003 (ip), vehicle: Klucel (hydroxypropylcellulose) (HPC)
[2] = dose: 100.0 mg/kg/injection, schedule: Q04DX003 (ip), vehicle: Klucel (hydroxypropylcellulose) (HPC)
[3] = dose: 60.0 mg/kg/injection, schedule: Q01DX005 (ip), vehicle: saline with Tween-80
[4] = dose: 200.0 mg/kg/injection, schedule: Q01DX005 (ip), vehicle: saline with Tween-80
[5] = dose: 50.0 mg/kg/injection, schedule: Q01DX005 (ip), vehicle: saline with Tween-80
[6] = dose: 100.0 mg/kg/injection, schedule: Q01DX005 (ip), vehicle: saline with Tween-80
[7] = dose: 12.5 mg/kg/injection, schedule: Q01DX005 (ip), vehicle: Klucel (hydroxypropylcellulose) (HPC)
[8] = dose: 25.0 mg/kg/injection, schedule: Q01DX005 (ip), vehicle: Klucel (hydroxypropylcellulose) (HPC)
[9] = dose: 50.0 mg/kg/injection, schedule: Q01DX005 (ip), vehicle: Klucel (hydroxypropylcellulose) (HPC)
[10] = dose: 120.0 mg/kg/injection, schedule: Q01DX005 (ip), vehicle: saline with Tween-80
[11] = dose: 240.0 mg/kg/injection, schedule: Q01DX005 (ip), vehicle: saline with Tween-80
[12] = dose: 6.25 mg/kg/injection, schedule: Q01DX009 (ip), vehicle: saline with Tween-80
[13] = dose: 25.0 mg/kg/injection, schedule: Q01DX009 (ip), vehicle: saline with Tween-80
[14] = dose: 50.0 mg/kg/injection, schedule: Q01DX009 (ip), vehicle: saline with Tween-80
[15] = dose: 100.0 mg/kg/injection, schedule: Q01DX009 (ip), vehicle: saline with Tween-80

Compound: CC(=O)Oc1c2ccsc2cc2sccc12
- T/C (dose: 12.5 mg/kg/injection, schedule: Q04DX003 (ip), vehicle: Klucel (hydroxypropylcellulose) (HPC)): 95 % of control
- T/C (dose: 25.0 mg/kg/injection, schedule: Q04DX003 (ip), vehicle: Klucel (hydroxypropylcellulose) (HPC)): 94 % of control
- T/C [1]: 94 % of control
- T/C [2]: 100 % of control

Compound: CC1(C)COCN1CN1COCC1(C)C
- T/C (dose: 0.78 mg/kg/injection, schedule: Q04DX003 (ip), vehicle: saline): 100 % of control
- T/C (dose: 1.56 mg/kg/injection, schedule: Q04DX003 (ip), vehicle: saline): 101 % of control
- T/C (dose: 3.13 mg/kg/injection, schedule: Q04DX003 (ip), vehicle: saline): 100 % of control
- T/C (dose: 12.5 mg/kg/injection, schedule: Q04DX003 (ip), vehicle: saline): 111 % of control
- T/C (dose: 25.0 mg/kg/injection, schedule: Q04DX003 (ip), vehicle: saline): 102 % of control
- T/C (dose: 50.0 mg/kg/injection, schedule: Q04DX003 (ip), vehicle: saline): 120 % of control
- T/C (dose: 100.0 mg/kg/injection, schedule: Q04DX003 (ip), vehicle: saline): 123 % of control
- T/C (dose: 200.0 mg/kg/injection, schedule: Q04DX003 (ip), vehicle: saline): 107 % of control

Compound: c1ccc(N=c2cnc3c(ccc4ccccc43)o2)cc1
- T/C (dose: 3.75 mg/kg/injection, schedule: Q01DX005 (ip), vehicle: saline with Tween-80): 102 % of control
- T/C (dose: 7.5 mg/kg/injection, schedule: Q01DX005 (ip), vehicle: saline with Tween-80): 112 % of control
- T/C (dose: 15.0 mg/kg/injection, schedule: Q01DX005 (ip), vehicle: saline with Tween-80): 107 % of control and 116 % of control
- T/C [3]: 115 % of control

Compound: COc1cc2cc[n+]3c4ccc([N+](=O)[O-])cc4ccc3c2cc1OC
- T/C [4]: 89 % of control

Compound: CNc1ccccc1C(=O)NNC(=O)Nc1ccccc1C(F)(F)F
- T/C [5]: 98 % of control
- T/C [6]: 100 % of control
- T/C [4]: 111 % of control

Compound: COc1ccc(/C(C#N)=C\c2ccc(N(C)C)cc2)cc1
- T/C [1]: 108 % of control
- T/C [2]: 105 % of control
- T/C (dose: 200.0 mg/kg/injection, schedule: Q04DX003 (ip), vehicle: Klucel (hydroxypropylcellulose) (HPC)): 106 % of control
- T/C (dose: 400.0 mg/kg/injection, schedule: Q04DX003 (ip), vehicle: Klucel (hydroxypropylcellulose) (HPC)): 105 % of control

Compound: O=[N+]([O-])c1ccc(/C=C(/c2ccc([N+](=O)[O-])o2)S(=O)(=O)c2ccccc2)cc1
- T/C (dose: 50.0 mg/kg/injection, schedule: Q01DX009 (ip), vehicle: suspension in saline): 97 % of control
- T/C (dose: 100.0 mg/kg/injection, schedule: Q01DX009 (ip), vehicle: suspension in saline): 103 % of control
- T/C (dose: 200.0 mg/kg/injection, schedule: Q01DX009 (ip), vehicle: suspension in saline): 97 % of control

Compound: O=C(O)CNC(=O)C(Cl)Cl
- T/C (dose: 50.0 mg/kg/injection, schedule: Q01DX005 (ip), vehicle: saline): 100 % of control
- T/C (dose: 100.0 mg/kg/injection, schedule: Q01DX005 (ip), vehicle: saline): 100 % of control
- T/C (dose: 200.0 mg/kg/injection, schedule: Q01DX005 (ip), vehicle: saline): 90 % of control

Compound: COC(=O)CC1c2ccc3cc(OC)ccc3c2CCC1(C)C(=O)OC (centres undefined)
- T/C [5]: 103 % of control
- T/C [6]: 96 % of control
- T/C [4]: 98 % of control

Compound: COc1ccc2c(CCN(/C=C/C(C)=O)C(C)=O)cn(C(C)=O)c2c1
- T/C [7]: 109 % of control
- T/C [8]: 104 % of control
- T/C [9]: 100 % of control

Compound: CC(C)(Sc1cc(Cl)c(Cl)c(Cl)c1)C(=O)OCCN1CCOCC1
- T/C [3]: 101 % of control and 88 % of control
- T/C [10]: 101 % of control
- T/C [11]: 86 % of control and 94 % of control

Compound: OCCN(CCO)c1ncnc2nc[nH]c12
- T/C [5]: 88 % of control
- T/C [6]: 96 % of control
- T/C [4]: 98 % of control

Compound: C1CC[N-]CC1.C1CC[N-]CC1.C1CC[N-]CC1.[Cr+6].[N-]=C=S.[N-]=C=S.[N-]=C=S
- T/C (dose: 100.0 mg/kg/injection, schedule: Q04DX002 (ip), vehicle: acetone): 97 % of control
- T/C (dose: 100.0 mg/kg/injection, schedule: Q04DX002 (ip), vehicle: distilled water + alcohol): 99 % of control
- T/C (dose: 200.0 mg/kg/injection, schedule: Q04DX002 (ip), vehicle: acetone): 97 % of control

Compound: CC1OC(CC(=O)O)CC2=C1C(=O)c1c(O)cccc1C2=O (centres undefined)
- T/C (dose: 3.13 mg/kg/injection, schedule: Q01DX009 (ip), vehicle: saline with Tween-80): 94 % of control
- T/C [12]: 115 % of control and 117 % of control
- T/C (dose: 12.5 mg/kg/injection, schedule: Q01DX009 (ip), vehicle: saline with Tween-80): 110 % of control and 115 % of control
- T/C [13]: 101 % of control and 114 % of control

Compound: Clc1ccc2ccc3ccc(Cl)nc3c2n1
- T/C [3]: 92 % of control
- T/C [10]: 89 % of control
- T/C [11]: 92 % of control

Compound: Cc1csc(NC(=O)Nc2ccc(F)cc2[N+](=O)[O-])n1
- T/C (dose: 25.0 mg/kg/injection, schedule: Q01DX009 (ip), vehicle: Klucel (hydroxypropylcellulose) (HPC)): 106 % of control
- T/C (dose: 50.0 mg/kg/injection, schedule: Q01DX009 (ip), vehicle: Klucel (hydroxypropylcellulose) (HPC)): 97 % of control
- T/C [14]: 105 % of control
- T/C (dose: 100.0 mg/kg/injection, schedule: Q01DX009 (ip), vehicle: Klucel (hydroxypropylcellulose) (HPC)): 100 % of control
- T/C [15]: 94 % of control
- T/C (dose: 200.0 mg/kg/injection, schedule: Q01DX009 (ip), vehicle: Klucel (hydroxypropylcellulose) (HPC)): 95 % of control

Compound: COC(=O)COC(=O)C1C(C(N)=O)N(CC(=O)OC)CCN1CC(=O)OC (centres undefined)
- T/C [5]: 103 % of control
- T/C [6]: 103 % of control
- T/C [4]: 103 % of control

Compound: COc1cc(N(CCCl)CCCl)ccc1C=Nc1ccccc1C(=O)O
- T/C (dose: 12.37 mg/kg/injection, schedule: Q04DX003 (ip), vehicle: saline with Tween-80): 195 % of control
- T/C (dose: 18.75 mg/kg/injection, schedule: Q04DX003 (ip), vehicle: saline with Tween-80): 181 % of control and 268 % of control

Compound: C[N+](C)=c1ccc2nc3ccc(N)cc3sc-2c1
- T/C (dose: 3.13 mg/kg/injection, schedule: Q01DX009 (ip), vehicle: saline): 106 % of control
- T/C [12]: 87 % of control
- T/C (dose: 6.25 mg/kg/injection, schedule: Q01DX009 (ip), vehicle: saline): 94 % of control
- T/C (dose: 12.5 mg/kg/injection, schedule: Q01DX009 (ip), vehicle: saline): 95 % of control
- T/C [13]: 102 % of control and 103 % of control
- T/C (dose: 25.0 mg/kg/injection, schedule: Q01DX009 (ip), vehicle: saline): 107 % of control
- T/C [14]: 95 % of control
- T/C (dose: 50.0 mg/kg/injection, schedule: Q01DX009 (ip), vehicle: saline): 104 % of control

Compound: O=NNc1ccc2cc3ccc(NN=O)cc3nc2c1
- T/C (dose: 25.0 mg/kg/injection, schedule: Q01DX009 (ip), vehicle: water): 122 % of control
- T/C (dose: 50.0 mg/kg/injection, schedule: Q01DX009 (ip), vehicle: water): 106 % of control and 97 % of control

Compound: CCOC(=O)NN(C(=O)OCC)C(C(C)=O)C(C)=NCCN=C(C)C(C(C)=O)N(NC(=O)OCC)C(=O)OCC.[Cu] (centres undefined)
- T/C [7]: 100 % of control
- T/C [8]: 105 % of control
- T/C [9]: 100 % of control and 107 % of control

Compound: CCOC(=O)C1(C)CCCC1N (centres undefined)
- T/C (dose: 60.0 mg/kg/injection, schedule: Q01DX005 (ip), vehicle: saline): 92 % of control
- T/C (dose: 120.0 mg/kg/injection, schedule: Q01DX005 (ip), vehicle: saline): 90 % of control

Compound: CC1(C)C(C(N)=O)C(=O)NC(=O)C1C(N)=O (centres undefined)
- T/C (dose: 25.0 mg/kg/injection, schedule: Q01DX009 (ip), vehicle: other): 100 % of control
- T/C (dose: 50.0 mg/kg/injection, schedule: Q01DX009 (ip), vehicle: other): 100 % of control
- T/C (dose: 100.0 mg/kg/injection, schedule: Q01DX009 (ip), vehicle: other): 99 % of control
- T/C (dose: 200.0 mg/kg/injection, schedule: Q01DX009 (ip), vehicle: other): 100 % of control
- T/C (dose: 400.0 mg/kg/injection, schedule: Q01DX009 (ip), vehicle: other): 105 % of control

Compound: O=C(Nc1ccccc1C(=O)c1ccccc1)Nc1ccc(F)cc1[N+](=O)[O-]
- T/C [14]: 97 % of control
- T/C [15]: 109 % of control
- T/C (dose: 200.0 mg/kg/injection, schedule: Q01DX009 (ip), vehicle: saline with Tween-80): 94 % of control

Compound: CC1(c2ccccc2)OC(=O)C=CC1=O (centres undefined)
- T/C [3]: 110 % of control
- T/C [10]: 104 % of control
- T/C [11]: 108 % of control
